Reference: patent US20140336233A1 (priority 2011, published 2014)
Where two headings read alike, the source gives them in different places.

Experiments:
[1] = test system: Phytophthora infestans; assay type: in vivo, Phytophthora infestans on potato plants (variety Bintje); conditions: for Efficacy (Abbott formula): Trial 1, potato, spray 24 h before inoculation, notation 5 days after contamination
[2] = test system: Phytophthora infestans; assay type: in vivo, Phytophthora infestans on tomato plants (variety Rentita); conditions: Trial 3, tomato, preventive 24 h, notation 6 days after contamination
[3] = test system: Peronospora parasitica; assay: In vivo test against Peronospora parasitica (crucifer downy mildew); design: species or system Peronospora parasitica on cabbage plants (Eminence variety); conditions: cabbage, spray 24 h before contamination, grading 5 days
Experimental: Spirotetramat is prepared by dilution of the SC100 g/l formulation in water to obtain the desired active material concentration.
Cabbage plants (Eminence variety) in starter cups, sown on a 50/50 peat soil-pozzolana substrate and grown at 18-20° C., are treated at the cotyledon stage by spraying with the aqueous suspension described above at 500, 125 and 31 mg/l.
Plants, used as controls, are treated with an aqueous solution not containing the active material.
After 24 hours, the plants are contaminated by spraying them with an aqueous suspension of Peronospora parasitica spores (37 500 spores per ml). The spores are collected from infected plants.
The contaminated cabbage plants are incubated for 5 days at 20° C., under a humid atmosphere.
(§1) Grading is carried out 5 days after the contamination, in comparison with the control plants.

[4] = test system: Plasmopara viticola; assay: In vivo test against Plasmopara viticola (vine downy mildew); conditions: from 25 to 200 g a.i./ha, spray 24 h before inoculation, grading 5 days (FIG. 4)
Experimental: The treatment is done by spray application in a spray cabinet at 500 L/ha with the aqueous dilutions of spirotetramat SC100 g/l formulation from 25 to 200 g a.i./ha.
The treatment is applied on six vine plants (Cabernet sauvignon variety, 9 weeks old) 24 hours and the plants are placed in a climatic chamber at 18° C. before inoculation.
The inoculation consists on spraying the sporangia suspension calibrated at 100 000 sporangia/ml, at the lower leaf face of each plant 24 h after the treatment and the plants are then placed in a climatic chamber at 18° C. day and night with saturate humidity until the symptoms assessment.
as §1

CCOC(=O)OC1=C(c2cc(C)ccc2C)C(=O)N[C@]12CC[C@@H](OC)CC2 [spirotetramat]
Efficacy (Abbott formula) ([1]; 100 g a.i./ha): 86% | Efficacy (Abbott formula) ([1]; 1000 g a.i./ha): 99% | Efficacy compared with standards ([1]; Trial 2, potato, around 150 g a.i./ha, high disease pressure, preventive 24 h (FIG. 2)): equivalent to the best standard | Efficacy, disease controlled ([2]; 100 g a.i./ha): 95% | Efficacy, disease controlled ([2]; 200 g a.i./ha): 95% | Activity on Peronospora parasitica ([3]; 31 mg/l active ingredient): 100% | Activity on Peronospora parasitica ([3]; 125 mg/l active ingredient): 100% | Activity on Peronospora parasitica ([3]; 500 mg/l active ingredient): 100% | Activity against Plasmopara viticola vine downy mildew [4]: 100%
